Source: patent US11773094B2, “Farnesoid X receptor agonists and uses thereof” (Metacrine, Inc., priority 2018, dated 2023)

target: T1, hFXR (Homo sapiens, UniProt Q96RI1); assay: In Vitro FXR Assay (TK): TK-ECRE-luc reporter in transfected CV-1 cells; assay type: cell-based; settings: CV-1 cells transfected with hFXR, hRXR, pCMX-YFP, 18 hrs incubation, luminescence
T1 construct: expressed in transfected cells; host or cells: CV-1 cells
T1 sequence (Q96RI1 1-486): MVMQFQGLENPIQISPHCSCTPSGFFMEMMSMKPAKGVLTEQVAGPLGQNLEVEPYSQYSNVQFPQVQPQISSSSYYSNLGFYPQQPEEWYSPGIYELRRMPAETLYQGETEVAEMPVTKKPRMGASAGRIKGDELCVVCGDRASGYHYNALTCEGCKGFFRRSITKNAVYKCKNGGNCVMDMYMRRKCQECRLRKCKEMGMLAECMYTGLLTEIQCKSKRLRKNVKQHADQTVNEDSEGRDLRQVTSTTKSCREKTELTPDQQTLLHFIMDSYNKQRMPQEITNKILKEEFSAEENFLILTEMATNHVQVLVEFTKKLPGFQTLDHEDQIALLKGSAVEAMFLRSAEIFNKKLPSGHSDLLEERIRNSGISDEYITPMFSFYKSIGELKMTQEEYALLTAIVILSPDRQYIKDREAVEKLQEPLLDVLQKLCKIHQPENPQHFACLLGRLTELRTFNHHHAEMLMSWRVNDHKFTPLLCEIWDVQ
T1 sequence (P19793 1-462 partner): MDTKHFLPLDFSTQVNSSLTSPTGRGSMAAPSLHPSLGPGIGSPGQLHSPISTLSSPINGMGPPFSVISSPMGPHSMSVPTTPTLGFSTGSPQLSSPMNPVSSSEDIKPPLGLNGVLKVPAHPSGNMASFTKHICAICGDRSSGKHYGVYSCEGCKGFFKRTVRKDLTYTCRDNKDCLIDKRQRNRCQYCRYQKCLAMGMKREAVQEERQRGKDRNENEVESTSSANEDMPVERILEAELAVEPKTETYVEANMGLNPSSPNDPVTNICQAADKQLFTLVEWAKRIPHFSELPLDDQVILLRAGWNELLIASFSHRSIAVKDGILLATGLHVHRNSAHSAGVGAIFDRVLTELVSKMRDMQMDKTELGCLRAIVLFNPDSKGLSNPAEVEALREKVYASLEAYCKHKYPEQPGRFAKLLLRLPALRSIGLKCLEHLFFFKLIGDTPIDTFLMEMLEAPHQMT
Experimental: Example B-1: In Vitro FXR Assay (TK)
CV-1 cells were seeded at a density of 2,000,000 cells in a T175 flask with DMEM+10% charcoal double-stripped FBS and incubated at 37° C. in 5% CO2 for 18 h (O/N).
After 18 h of incubation, the medium in the T175 flask was changed with fresh DMEM+10% charcoal super-stripped serum. In a polypropylene tube, 2500 μL OptiMEM (Life Technologies, Cat #31985-062) was combined with expression plasmids for hFXR, hRXR, TK-ECRE-luc and pCMX-YFP. The tube was then briefly vortexed and incubated at room temperature for 5 minutes. Transfection reagent (X-tremeGENE HP from Roche, Cat #06 366 236 001) was added to the OptiMEM/plasmid mixture vortexed and incubated at room temperature for 20 minutes. Following incubation, the transfection reagent/DNA mixture complex was added to cells in the T175 flask and the cells were incubated at 37° C. in 5% CO2 for 18 h (O/N).
Compounds were serially diluted in DMSO and added to transfected CV-1 cells. The cells were then incubated for 18 hrs. The next day cells were lysed and examined for luminescence.

Row | EC50 [nM] | Structure (SMILES)
1 | 10 to 1000 | COc1ccc([C@H]2CC[C@H](CN(c3cc(-c4cnc(C(C)(C)C)s4)ccn3)C(=O)[C@H]3CC[C@H](OC(=O)N4CC(O)C4)CC3)CC2)cc1C [Compound 1.01, trans-4-((4-(2-(tert-Butyl)thiazol-5-yl)pyridin-2-yl)(((trans)-4-(4-methoxy-3-methylphenyl)cyclohexyl)methyl)carbamoyl) cyclohexyl 3-hydroxyazetidine-1-carboxylate]
2 | 10 to 1000 | COc1ccc([C@H]2CC[C@H](CN(c3cc(-c4cnc(C(C)(C)C)s4)ccn3)C(=O)[C@H]3CC[C@H](OC(=O)N4CC(O)C4(C)C)CC3)CC2)cc1C (stereo partly drawn) [Compound 1.02, trans-4-((4-(2-(tert-Butyl)thiazol-5-yl)pyridin-2-yl)(((trans)-4-(4-methoxy-3-methylphenyl)cyclohexyl)methyl)carbamoyl) cyclohexyl 3-hydroxy-2,2-dimethylazetidine-1-carboxylate]
3 | 10 to 1000 | COc1ccc([C@H]2CC[C@H](CN(c3cc(-c4cnc(C(C)(C)C)s4)ccn3)C(=O)[C@H]3CC[C@H](OC(=O)N4CCC(O)CC4)CC3)CC2)cc1C [Compound 1.03, trans-4-((4-(2-(tert-Butyl)thiazol-5-yl)pyridin-2-yl)(((trans)-4-(4-methoxy-3-methylphenyl)cyclohexyl)methyl)carbamoyl) cyclohexyl 4-hydroxypiperidine-1-carboxylate]
4 | 10 to 1000 | COc1ccc([C@H]2CC[C@H](CN(c3cc(-c4coc(C(C)(C)C)n4)ccn3)C(=O)[C@H]3CC[C@H](OC(=O)N4CC(O)C4)CC3)CC2)cc1C [Compound 1.04, trans-4-((4-(2-(tert-Butyl)oxazol-4-yl)pyridin-2-yl)(((trans)-4-(4-methoxy-3-methylphenyl)cyclohexyl)methyl)carbamoyl) cyclohexyl 3-hydroxyazetidine-1-carboxylate]
5 | 10 to 1000 | COc1ccc([C@H]2CC[C@H](CN(c3cc(-c4coc(C(C)(C)C)n4)ccn3)C(=O)[C@H]3CC[C@H](OC(=O)N4CC(O)C4(C)C)CC3)CC2)cc1C (stereo partly drawn) [Compound 1.05, trans-4-((4-(2-(tert-Butyl)oxazol-4-yl)pyridin-2-yl)(((trans)-4-(4-methoxy-3-methylphenyl)cyclohexyl)methyl)carbamoyl) cyclohexyl 3-hydroxy-2,2-dimethylazetidine-1-carboxylate]
6 | 10 to 1000 | COc1ccc([C@H]2CC[C@H](CN(c3cc(-c4coc(C(C)(C)C)n4)ccn3)C(=O)[C@H]3CC[C@H](OC(=O)N4CCC(O)CC4)CC3)CC2)cc1C [Compound 1.06, trans-4-((4-(2-(tert-Butyl)oxazol-4-yl)pyridin-2-yl)(((trans)-4-(4-methoxy-3-methylphenyl)cyclohexyl)methyl)carbamoyl) cyclohexyl 4-hydroxypiperidine-1-carboxylate]
7 | 10 to 1000 | COc1ccc([C@H]2CC[C@H](CN(c3cc(-c4coc(C(C)(C)C)n4)ccn3)C(=O)[C@H]3CC[C@H](OC(=O)NC4CCOCC4)CC3)CC2)cc1C [Compound 1.07, trans-4-((4-(2-(tert-Butyl)oxazol-4-yl)pyridin-2-yl)(((trans)-4-(4-methoxy-3-methylphenyl)cyclohexyl)methyl)carbamoyl) cyclohexyl (tetrahydro-2H-pyran-4-yl)carbamate]
8 | 10 to 1000 | COc1ccc([C@H]2CC[C@H](CN(c3cc(-c4cnn(C(C)(C)C)c4)ccn3)C(=O)[C@H]3CC[C@H](OC(=O)N4CC(O)C4)CC3)CC2)cc1C [Compound 1.08, trans-4-((4-(1-(tert-Butyl)-1H-pyrazol-4-yl)pyridin-2-yl)((trans-4-(4-methoxy-3-methylphenyl)cyclohexyl)methyl)carbamoyl) cyclohexyl 3-hydroxyazetidine-1-carboxylate]
9 | ≤ 10 | COc1ccc([C@H]2CC[C@H](CN(c3cc(-c4cnn(C(C)(C)C)c4)ccn3)C(=O)[C@H]3CC[C@H](OC(=O)N4CC(O)C4(C)C)CC3)CC2)cc1C (stereo partly drawn) [Compound 1.09, trans-4-((4-(1-(tert-Butyl)-1H-pyrazol-4-yl)pyridin-2-yl)((trans-4-(4-methoxy-3-methylphenyl)cyclohexyl)methyl)carbamoyl) cyclohexyl 3-hydroxy-2,2-dimethylazetidine-1-carboxylate]
10 | 10 to 1000 | COc1ccc([C@H]2CC[C@H](CN(c3cc(-c4cnn(C(C)(C)C)c4)ccn3)C(=O)[C@H]3CC[C@H](OC(=O)N4CCC(O)CC4)CC3)CC2)cc1C [Compound 1.10, trans-4-((4-(1-(tert-Butyl)-1H-pyrazol-4-yl)pyridin-2-yl)((trans-4-(4-methoxy-3-methylphenyl)cyclohexyl)methyl)carbamoyl) cyclohexyl 4-hydroxypiperidine-1-carboxylate]
11 | 10 to 1000 | COc1ccc([C@H]2CC[C@H](CN(c3cc(-c4cnn(C(C)(C)C)c4)ccn3)C(=O)[C@H]3CC[C@H](OC(=O)NC4CCOCC4)CC3)CC2)cc1C [Compound 1.11, trans-4-((4-(1-(tert-Butyl)-1H-pyrazol-4-yl)pyridin-2-yl)((trans-4-(4-methoxy-3-methylphenyl)cyclohexyl)methyl)carbamoyl) cyclohexyl (tetrahydro-2H-pyran-4-yl)carbamate]
12 | ≤ 10 | COc1ccc(C23CCC(CN(c4cc(-c5cnn(C(C)(C)C)c5)c(F)cn4)C(=O)[C@H]4CC[C@H](OC(=O)N5CC(O)C5)CC4)(CC2)CC3)cc1C [Compound 1.12, 4-((4-(1-(tert-Butyl)-1H-pyrazol-4-yl)-5-fluoropyridin-2-yl)((4-(4-methoxy-3-methylphenyl)bicyclo[2.2.2]octan-1-yl)methyl)carbamoyl) (trans-cyclohexyl) 3-hydroxyazetidine-1-carboxylate]
13 | 10 to 1000 | COc1ccc(C23CCC(CN(c4ccnc(-c5cnn(C(C)(C)C)c5)c4)C(=O)[C@H]4CC[C@H](OC(=O)N5CC(O)C5)CC4)(CC2)CC3)cc1C [Compound 1.13, 4-((2-(1-(tert-Butyl)-1H-pyrazol-4-yl)pyridin-4-yl)((4-(4-methoxy-3-methylphenyl)bicyclo[2.2.2]octan-1-yl)methyl)carbamoyl) (trans-cyclohexyl) 3-hydroxyazetidine-1-carboxylate]
14 | ≤ 10 | COc1ccc(C23CCC(CN(c4cncc(-c5cnn(C(C)(C)C)c5)c4)C(=O)[C@H]4CC[C@H](OC(=O)N5CC(O)C5)CC4)(CC2)CC3)cc1C [Compound 1.14, 4-((5-(1-(tert-Butyl)-1H-pyrazol-4-yl)pyridin-3-yl)((4-(4-methoxy-3-methylphenyl)bicyclo[2.2.2]octan-1-yl)methyl)carbamoyl) (trans-cyclohexyl) 3-hydroxyazetidine-1-carboxylate]
15 | 10 to 1000 | COc1ccc(C23CCC(CN(c4cccc(-c5cnn(C(C)(C)C)c5)n4)C(=O)[C@H]4CC[C@H](OC(=O)N5CC(O)C5)CC4)(CC2)CC3)cc1C [Compound 1.15, 4-((6-(1-(tert-Butyl)-1H-pyrazol-4-yl)pyridin-2-yl)((4-(4-methoxy-3-methylphenyl)bicyclo[2.2.2]octan-1-yl)methyl)carbamoyl) (trans-cyclohexyl) 3-hydroxyazetidine-1-carboxylate]
16 | 10 to 1000 | COc1ccc([C@H]2CC[C@H](CN(c3cc(-c4cnc(C(C)(C)C)s4)ccn3)C(=O)[C@H]3CC[C@H](OC(=O)NC4CCOCC4)CC3)CC2)cc1C [Compound 1]
17 | ≤ 10 | COc1ccc(C23CCC(CN(c4cc(-c5coc(C(C)(C)C)n5)ccn4)C(=O)[C@H]4CC[C@H](OC(=O)NCCCO)CC4)(CC2)CC3)cc1C [Compound 2, 4-((4-(2-(tert-Butyl)oxazol-4-yl)pyridin-2-yl)((4-(4-methoxy-3-methylphenyl)bicyclo[2.2.2]octan-1-yl)methyl)carbamoyl) (trans-cyclohexyl) (3-hydroxypropyl)carbamate]
